Measurements: the CheMixHub viscosity set

Experiment: xn = mol fraction of the nth substance listed

COC(C)=O + Cc1ccccc1C
viscosity [mPa·s], 101 kPa
Details | 298.15 K | 308.15 K
x1 = 0.0434 | 0.731 | 0.636
x1 = 0.1489 | 0.668 | 0.587
x1 = 0.2499 | 0.616 | 0.546
x1 = 0.3517 | 0.57 | 0.508
x1 = 0.444 | 0.533 | 0.478
x1 = 0.4974 | 0.513 | 0.462
x1 = 0.5506 | 0.495 | 0.447
x1 = 0.6497 | 0.465 | 0.422
x1 = 0.7494 | 0.438 | 0.399
x1 = 0.851 | 0.414 | 0.378
x1 = 0.9458 | 0.394 | 0.36

CCC(C)=O + CS(C)=O
viscosity [mPa·s], 101.3 kPa
Details | 298.15 K | 308.15 K | 318.15 K
x1 = 0.054 | 1.762 | 1.448 | 1.23
x1 = 0.107 | 1.615 | 1.335 | 1.142
x1 = 0.213 | 1.372 | 1.138 | 0.982
x1 = 0.317 | 1.162 | 0.979 | 0.852
x1 = 0.419 | 0.988 | 0.83 | 0.734
x1 = 0.52 | 0.835 | 0.712 | 0.639
x1 = 0.619 | 0.717 | 0.621 | 0.561
x1 = 0.716 | 0.627 | 0.547 | 0.496
x1 = 0.812 | 0.54 | 0.473 | 0.436
x1 = 0.907 | 0.462 | 0.407 | 0.383
x1 = 0.954 | 0.438 | 0.379 | 0.361

COC(C)=O + CCCCO
298.15 K, 101.33 kPa
Details | viscosity [mPa·s]
x1 = 0.0786 | 1.953
x1 = 0.144 | 1.566
x1 = 0.2105 | 1.28
x1 = 0.2986 | 1.019
x1 = 0.4151 | 0.791
x1 = 0.4971 | 0.677
x1 = 0.5919 | 0.576
x1 = 0.6406 | 0.534
x1 = 0.7116 | 0.484
x1 = 0.7972 | 0.44
x1 = 0.9034 | 0.402

C1CCCCC1 + CCCCCCC
Details | viscosity [mPa·s]
298.15 K, 101 kPa, x1 = 0.3947 | 0.588
298.15 K, 101 kPa, x1 = 0.4171 | 0.598
298.15 K, 101 kPa, x1 = 0.4283 | 0.604
298.15 K, 101 kPa, x1 = 0.4413 | 0.612
298.15 K, 101 kPa, x1 = 0.4536 | 0.618
298.15 K, 101 kPa, x1 = 0.4623 | 0.622
298.15 K, 101 kPa, x1 = 0.469 | 0.626
298.15 K, 101 kPa, x1 = 0.4767 | 0.629
298.15 K, 101 kPa, x1 = 0.4813 | 0.631
298.15 K, 101 kPa, x1 = 0.4869 | 0.634
298.15 K, 101 kPa, x1 = 0.4921 | 0.636
298.15 K, 101 kPa, x1 = 0.4949 | 0.638
298.15 K, 101 kPa, x1 = 0.499 | 0.64
298.15 K, 101 kPa, x1 = 0.5069 | 0.644
298.15 K, 101 kPa, x1 = 0.5154 | 0.648
298.15 K, 101.33 kPa, x1 = 0.1013 | 0.406
298.15 K, 101.33 kPa, x1 = 0.1036 | 0.4183
298.15 K, 101.33 kPa, x1 = 0.2023 | 0.4381
298.15 K, 101.33 kPa, x1 = 0.2027 | 0.425
298.15 K, 101.33 kPa, x1 = 0.2962 | 0.46
298.15 K, 101.33 kPa, x1 = 0.304 | 0.448
298.15 K, 101.33 kPa, x1 = 0.3888 | 0.484
298.15 K, 101.33 kPa, x1 = 0.4037 | 0.475
298.15 K, 101.33 kPa, x1 = 0.4752 | 0.512
298.15 K, 101.33 kPa, x1 = 0.4998 | 0.505
298.15 K, 101.33 kPa, x1 = 0.5556 | 0.5415
298.15 K, 101.33 kPa, x1 = 0.6018 | 0.546
298.15 K, 101.33 kPa, x1 = 0.6389 | 0.5789
298.15 K, 101.33 kPa, x1 = 0.6985 | 0.594
298.15 K, 101.33 kPa, x1 = 0.7049 | 0.6136
298.15 K, 101.33 kPa, x1 = 0.7751 | 0.6582
298.15 K, 101.33 kPa, x1 = 0.8024 | 0.661
298.15 K, 101.33 kPa, x1 = 0.8468 | 0.7195
298.15 K, 101.33 kPa, x1 = 0.9002 | 0.751
298.15 K, 101.33 kPa, x1 = 0.9096 | 0.7778
298.15 K, 101.33 kPa, x1 = 0.9735 | 0.8588
298.15 K, 101.33 kPa, x2 = 0.1008 | 0.776
298.15 K, 101.33 kPa, x2 = 0.2001 | 0.68
298.15 K, 101.33 kPa, x2 = 0.2493 | 0.641
298.15 K, 101.33 kPa, x2 = 0.3511 | 0.578
298.15 K, 101.33 kPa, x2 = 0.4012 | 0.556
298.15 K, 101.33 kPa, x2 = 0.4993 | 0.52
298.15 K, 101.33 kPa, x2 = 0.5726 | 0.483
298.15 K, 101.33 kPa, x2 = 0.6007 | 0.479
298.15 K, 101.33 kPa, x2 = 0.7471 | 0.447
298.15 K, 101.33 kPa, x2 = 0.8984 | 0.409
303.15 K, 101 kPa, x1 = 0.0998 | 0.3894
303.15 K, 101 kPa, x1 = 0.2012 | 0.4064
303.15 K, 101 kPa, x1 = 0.298 | 0.4275
303.15 K, 101 kPa, x1 = 0.3986 | 0.454
303.15 K, 101 kPa, x1 = 0.5009 | 0.4857
303.15 K, 101 kPa, x1 = 0.5994 | 0.524
303.15 K, 101 kPa, x1 = 0.7025 | 0.5716
303.15 K, 101 kPa, x1 = 0.7975 | 0.6321
303.15 K, 101 kPa, x1 = 0.9009 | 0.7191
303.15 K, 101.33 kPa, x1 = 0.1013 | 0.386
303.15 K, 101.33 kPa, x1 = 0.2027 | 0.402
303.15 K, 101.33 kPa, x1 = 0.304 | 0.422
303.15 K, 101.33 kPa, x1 = 0.4037 | 0.447
303.15 K, 101.33 kPa, x1 = 0.4998 | 0.477
303.15 K, 101.33 kPa, x1 = 0.6018 | 0.512
303.15 K, 101.33 kPa, x1 = 0.6985 | 0.556
303.15 K, 101.33 kPa, x1 = 0.8024 | 0.619
303.15 K, 101.33 kPa, x1 = 0.9002 | 0.694
308.15 K, 101.33 kPa, x1 = 0.1013 | 0.365
308.15 K, 101.33 kPa, x1 = 0.2027 | 0.379
308.15 K, 101.33 kPa, x1 = 0.304 | 0.399
308.15 K, 101.33 kPa, x1 = 0.4037 | 0.422
308.15 K, 101.33 kPa, x1 = 0.4998 | 0.448
308.15 K, 101.33 kPa, x1 = 0.6018 | 0.481
308.15 K, 101.33 kPa, x1 = 0.6985 | 0.52
308.15 K, 101.33 kPa, x1 = 0.8024 | 0.577
308.15 K, 101.33 kPa, x1 = 0.9002 | 0.643

CCC(C)=O + CN(C)C=O
298.15 K, 101 kPa
Details | viscosity [mPa·s]
x2 = 0.0395 | 0.387
x2 = 0.0843 | 0.403
x2 = 0.1186 | 0.414
x2 = 0.1681 | 0.43
x2 = 0.2276 | 0.451
x2 = 0.2773 | 0.471
x2 = 0.3768 | 0.499
x2 = 0.5116 | 0.547
x2 = 0.6168 | 0.581
x2 = 0.7438 | 0.662
x2 = 0.8079 | 0.698

COCCOC + Cc1ccccc1
298.15 K, 101 kPa
Details | viscosity [mPa·s]
x1 = 0.102 | 0.535
x1 = 0.2036 | 0.509
x1 = 0.3047 | 0.486
x1 = 0.4053 | 0.462
x1 = 0.5055 | 0.444
x1 = 0.6053 | 0.434
x1 = 0.7046 | 0.429
x1 = 0.8035 | 0.425
x1 = 0.902 | 0.419

COCCOC + CCO
298.15 K, 101 kPa
Details | viscosity [mPa·s]
x1 = 0.05375 | 0.9565
x1 = 0.1133 | 0.8329
x1 = 0.1797 | 0.7369
x1 = 0.2542 | 0.663
x1 = 0.3383 | 0.5931
x1 = 0.434 | 0.5444
x1 = 0.544 | 0.4926
x1 = 0.8215 | 0.4356
